From patent publication US8759537B2, “3H-imidazo [4, 5-C] pyridine-6-carboxamides as anti-inflammatory agents” (Boehringer Ingelheim International GmbH, priority 2010, dated 2014)

What was measured:
mPGES-1 [1] = molecular target: T1, mPGES-1 (Homo sapiens (Human), UniProt O14684); assay: A549 cell-based assay (PGE2 formation, IL-1β stimulated, 50% human serum); details: A549 cells
Description: Although the enzymatic assay is a high throughput assay the disadvantage is that it uses a recombinant protein which is not in its natural environment. Accordingly a cellular assay was established in which a cell line of human origin (A549) expressing the mPGES-1 protein was used. In addition in order to mimic the situation in humans in which compounds can be bound to plasma proteins 50% human serum is added in the assay.
Cells were detached using Trypsin-EDTA. A549 cells were seeded in a 384-well collagene plate at a density of 7000 cells/well (50 μl) in F-12 medium containing 1% Penicillin-Streptomycin and 50% human serum. The cells were allowed to attach for 3-4 h. […] The total volume is 100 μl.
Concentrations of PGE2 in the cell free medium (10 μl) were measured using a commercially available HTRF kit from Cisbio (as described above). The PGE2 formation in the absence of test compound was taken as 100%.
IC50 values were derived from at 6-8 point titrations using conventional software.

mPGES-1 [2] = molecular target: T1, mPGES-1; assay: mPGES-1 enzyme assay (HTRF detection of PGE2); format: biochemical
Description: Microsomes from Rosetta E. coli bacteria expressing recombinant human mPGES-1 can be derived as described below:
Inoculate 5 ml LB with Ampicilin (50 μg/ml) and Chloramphenicol (34 μg/ml) with bacteria from freeze culture. Incubate 8 h at 37° C. with 200 rpm. Thereafter, inoculate 500-1000 ml LB containing Amp and Chloro with the 5 ml on culture and grow to OD640 of 0.8-1.0. Chill the culture to +4° C. before induction. Induce the culture with IPTG at a final concentration of 400 μM. Express the protein at room temp 18-23° C. with 200 rpm shaking over night.
The following steps can be performed on the following day: • 1. Spin down the cells in 250 ml centrifuge flasks for 15 min at 7000 rpm (Beckmann Coulte Avanti J-E centrifuge) • 2. Dissolve the pellet from 250 ml culture in 12.5 ml homogenization buffer • 3. (15 mM Tris-HCL pH8, 1 mM EDTA pH8, […], 2.5 mM GSH, 1 Tablet Protease inhibitor per 50 ml buffer) • 4. […] Add 2.5 ml MgCl2 (100 mM) and DNase 12.5 μl (0.8 mg/ml) and incubate on ice for 30 min • 6. Spin down the bacteria debris and save the supernatant, 7000 rpm for 15 min • 7. Isolate the protein containing membranes in the supernatant by ultracentrifugation 120000×g for 2 hour at 4° C. (Sorvall T880 rotor). • 8. Discard the supernatant and dissolve the pellet in 20 mM Potassium phosphate buffer pH7.4 (KH2PO4 and K2HPO4) buffer by sonication (5×10 s, 30% of a 50 W sonifier) and aliquot the enzyme and store aliquots at −80° C.
Before each experiment is performed an aliquot of the enzyme is thawed and it can then be dissolved in 0.1 M Potassium phosphate buffer pH7.4 (KH2PO4 and K2HPO4) buffer containing 2.5 mM GSH.
The aim of this assay is to determine the affinity of a test compound for the mPGES-1 enzyme.
47 μl of recombinant human mPGES-1 (˜0.5 μg protein/well) containing microsomal suspension in a buffer containing GSH, (2.5 mmol/L L-Glutathione reduced, dissolved in 0.1 mol/L Phosphat Buffer pH 7.4) is dispensed in a 384-well plate and thereafter 1 μl of the test compound(s) is/are added and incubated for 25 minutes at room temperature. The enzyme reaction is started by the addition of 2 ul PGH2 (final conc. 2 μM) dissolved in water-free Diglyme. After 60 seconds the reaction is terminated by addition of a stop solution containing FeCl2 (10 μL 0.074 mol/l FeCl2). The samples are diluted between 1:25 in PBS (Phosphate Buffered Saline). 10 μl of the diluted samples are transferred to 384-well low volume plate. In order to quantify the amount of PGE2 that has been formed, a homogenous time resolved fluorescent (HTRF) detecting of PGE2 has been performed using a commercially available kit from Cisbio according to the manufactures recommendation. […] Briefly, the diluted samples are mixed with 5 μl PGE2-d2 conjungate and 5 μl anti-PGE2 cryptate conjungate. After an incubation period of the plates over night, the fluorescence is measured by the use of an appropriate microplate reader.
The quantification plate contains also wells with different concentrations of PGE2 as calibration curve for the calculation of the PGE2 concentrations from the HTRF ratio values.
From all mPGES enzyme assay the background is subtracted and the IC50 is calculated over a nonlinear regression with conventional software.

[3] = IL-1β 5 ng/ml, read-out: mPGES-1 inhibitory effect in the cell assay, IC50
[4] = recombinant human mPGES-1 microsomes, PGH2 2 μM, read-out: mPGES-1 inhibitory effect in the enzyme assay, IC50
[5] = Table C comparison of selected benzimidazoles, read-out: Cell IC50
[6] = Table C comparison of selected benzimidazoles, read-out: Enzym IC50

T1 sequence (O14684 whole entry): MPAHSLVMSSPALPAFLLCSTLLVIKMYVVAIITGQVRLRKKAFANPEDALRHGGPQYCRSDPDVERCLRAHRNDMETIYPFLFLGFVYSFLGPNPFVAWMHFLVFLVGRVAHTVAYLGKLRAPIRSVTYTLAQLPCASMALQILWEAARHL

| Structure (SMILES) | IC50 (mPGES-1 [1]; [3]) [nM] | IC50 (mPGES-1 [2]; [4]) [nM] | IC50 (mPGES-1 [1]; [5]) [nM] | IC50 (mPGES-1 [2]; [6]) [nM] |
| --- | --- | --- | --- | --- |
| Cn1c(Nc2c(Cl)ccc(CNC(=O)C(C)(C)C)c2Cl)nc2cc(C(=O)N[C@H]3CC[C@H](C(F)(F)F)CC3)c(OCC(F)F)cc21 [drawing 46] |  |  | < 1 | 2 |
| CC(C)(C)C(=O)NCc1ccc(Cl)c(Nc2nc3cc(C(=O)N[C@H]4CC[C@H](C(F)(F)F)CC4)c(F)cc3[nH]2)c1Cl [Example 12, N-(trans-4-Trifluoromethyl-cyclohex-1-yl)-2-{2,6-dichloro-3-[(2,2-dimethyl-propionylamino)-methyl]-phenylamino}-6-fluoro-1H-benzimidazole-5-carboxylic acid amide] | 7 | 4 |  |  |
| Cn1c(Nc2c(Cl)ccc(CNC(=O)C(C)(C)C)c2Cl)nc2cc(C(=O)N[C@H]3CC[C@H](C(F)(F)F)CC3)c(F)cc21 [Example 3, N-(trans-4-Trifluoromethyl-cyclohex-1-yl)-2-{2,6-dichloro-3-[(2,2-dimethyl-propionylamino)-methyl]-phenylamino}-6-fluoro-1-methyl-1H-benzimidazole-5-carboxylic acid amide] | 1 | 4 |  |  |
| CC1CCCN1C(=O)NCc1ccc(Cl)c(Nc2nc3cc(C(=O)N[C@H]4CC[C@H](C(F)(F)F)CC4)c(OCC(F)F)cc3n2C)c1Cl (some centres unmarked) [Example 82] | 43 | 1 |  |  |
| Cn1c(Nc2c(Cl)ccc(CNC(=O)C(C)(C)C)c2Cl)nc2cc(C(=O)Nc3cc(F)cc(Cl)c3)c(F)cc21 [Example 23] | < 1 | 1 |  |  |
| Cn1c(Nc2c(Cl)ccc(CNC(=O)C(C)(C)C)c2Cl)nc2cc(C(=O)Nc3cccc(Cl)c3)c(F)cc21 [Example 18] | 4 | 1 |  |  |
| CC(NC(=O)c1cc2nc(Nc3c(Cl)ccc(CNC(=O)C(C)(C)C)c3Cl)n(C)c2cc1OCC(F)F)C(F)(F)F (centres unmarked) [Example 39] | < 1 | 4 |  |  |
| Cn1c(Nc2c(Cl)ccc(CNC(=O)C(C)(C)C)c2Cl)nc2cc(C(=O)Nc3ccc(Br)cc3)c(OCC(F)F)cc21 [drawing 44] |  |  | < 1 | 2 |
| CC(C)(C)C(=O)NCc1ccc(Cl)c(Nc2nc3cc(C(=O)N[C@H]4CC[C@H](C(F)(F)F)CC4)c(F)c(F)c3[nH]2)c1Cl [Example 180] | 93 | 2 |  |  |
| Cn1c(Nc2c(Cl)ccc(CNC(=O)C(C)(C)C)c2Cl)nc2cc(C(=O)NC[C@@H]3CCCO3)c(OCC(F)F)cc21 [Example 37] | 9 | 5 |  |  |
| Cn1c(Nc2c(Cl)ccc(CNC(=O)C(C)(C)C)c2Cl)nc2cc(C(=O)N[C@H]3CC[C@H](C(F)F)CC3)c(OCC(F)F)cc21 [Example 68] | 1 | 2 |  |  |
| Cn1c(Nc2c(Cl)ccc(CNC(=O)OC(C)(C)C)c2Cl)nc2cc(C(=O)N[C@H]3CC[C@H](C(F)(F)F)CC3)c(OCC(F)F)cc21 [Example 13, N-(trans-4-Trifluoromethyl-cyclohex-1-yl)-2-{2,6-dichloro-3-[(tert-butoxy-carbonylamino)-methyl]-phenylamino}-6-(2,2-difluoroethoxy)-1-methyl-1H-benzimidazole-5-carboxylic acid amide] | 28 | 3 |  |  |
| Cn1c(Nc2c(Cl)ccc(CNC(=O)C(C)(C)C)c2Cl)nc2cc(C(=O)NC3CC(F)(F)C3)c(F)cc21 [Example 20] | 14 | 3 |  |  |

Continued, in another order:

| IC50 (mPGES-1 [1]; [3]) [nM] | IC50 (mPGES-1 [2]; [4]) [nM] | Structure (SMILES) | IC50 (mPGES-1 [1]; [5]) [nM] | IC50 (mPGES-1 [2]; [6]) [nM] |
| --- | --- | --- | --- | --- |
| < 1 | 4 | Cn1c(Nc2c(Cl)ccc(CNC(=O)C(C)(C)C)c2Cl)nc2cc(C(=O)NCc3ncccc3C(F)(F)F)c(OCC(F)F)cc21 [Example 42] |  |  |
| < 1 | 4 | Cn1c(Nc2c(Cl)ccc(CNC(=O)C(C)(C)C)c2Cl)nc2cc(C(=O)NC3CC4CCC3C4)c(OCC(F)F)cc21 (centres unmarked) [Example 55] |  |  |
| 1 | 4 | Cn1c(Nc2c(Cl)ccc(CNC(=O)C(C)(C)C)c2Cl)nc2cc(C(=O)Nc3ncc(Cl)s3)c(OCC(F)F)cc21 [Example 41] |  |  |
| < 1 | 4 | Cn1c(Nc2c(Cl)ccc(CNC(=O)C(C)(C)C)c2Cl)nc2cc(C(=O)Nc3ccc(C(F)(F)F)cn3)c(OCC(F)F)cc21 [Example 61] |  |  |
| 2 | 1 | Cn1c(Nc2c(Cl)ccc(CNC(=O)C(C)(C)C)c2Cl)nc2cc(C(=O)Nc3ccc(Cl)c(F)c3)c(F)cc21 [Example 19] |  |  |
| < 1 | 4 | Cn1c(Nc2c(Cl)ccc(CNC(=O)C(C)(C)C)c2Cl)nc2cc(C(=O)NCc3ccc(F)cc3C(F)(F)F)c(OCC(F)F)cc21 [Example 36] |  |  |
| 1 | 2 | Cc1cc(C#N)c(NC(=O)c2cc3nc(Nc4c(Cl)ccc(CNC(=O)C(C)(C)C)c4Cl)n(C)c3cc2OCC(F)F)s1 [Example 62] |  |  |
| 1 | 3 | Cn1c(Nc2c(Cl)ccc(CNC(=O)C(C)(C)C)c2Cl)nc2cc(C(=O)NCC3CCC3)c(OCC(F)F)cc21 [Example 46] |  |  |
| 9 | 1 | Cn1c(Nc2c(F)ccc(CNC(=O)C(C)(C)C)c2F)nc2cc(C(=O)Nc3cccc(F)c3)c(OCC(F)F)cc21 [Example 72] |  |  |
| < 1 | 3 | Cn1c(Nc2c(Cl)ccc(CNC(=O)C(C)(C)C)c2Cl)nc2cc(C(=O)NCC(F)(F)C(F)(F)F)c(OCC(F)F)cc21 [Example 38] |  |  |
| < 1 | 4 | Cn1c(Nc2c(Cl)ccc(CNC(=O)C(C)(C)C)c2Cl)nc2cc(C(=O)NCc3ccccc3C(F)(F)F)c(OCC(F)F)cc21 [Example 35] |  |  |
| < 1 | 3 | Cn1c(Nc2c(Cl)ccc(CNC(=O)C(C)(C)C)c2F)nc2cc(C(=O)Nc3ccc(Br)cc3)c(OCC(F)F)cc21 [Example 8] |  |  |
| < 1 | 4 | Cn1c(Nc2c(Cl)ccc(CNC(=O)C(C)(C)C)c2Cl)nc2cc(C(=O)Nc3cccc(C(F)(F)F)n3)c(OCC(F)F)cc21 [Example 66] |  |  |
| 1 | 3 | Cn1c(Nc2c(Cl)ccc(CNC(=O)C(C)(C)C)c2Cl)nc2cc(C(=O)Nc3cccc(F)c3)c(OCC(F)F)cc21 [Example 31] |  |  |
| 9 | 2 | Cn1c(Nc2c(F)ccc(CNC(=O)C(C)(C)C)c2F)nc2cc(C(=O)N[C@H]3CC[C@H](C(F)(F)F)CC3)c(OCC(F)F)cc21 [Example 25] |  |  |
| 4 | 1 | Cn1c(Nc2c(Cl)ccc(CNC(=O)C(C)(C)C)c2Cl)nc2cc(C(=O)Nc3c(F)ccc(F)c3F)c(OCC(F)F)cc21 [Example 85] |  |  |
| 1 | 2 | Cn1c(Nc2c(Cl)ccc(CNC(=O)C(C)(C)C)c2Cl)nc2cc(C(=O)Nc3cc(Cl)ccc3Cl)c(F)cc21 [Example 22] |  |  |
| 2 | 4 | CC(C)(C)C(=O)NCc1ccc(Cl)c(Nc2nc3cc(C(=O)Nc4ccc(Br)cc4)c(OCC(F)F)cc3[nH]2)c1Cl [Example 4, N-(4-Bromo-phenyl)-2-{2,6-dichloro-3-[(2,2-dimethyl-propionylamino)-methyl]-phenylamino}-6-(2,2-difluoro-ethoxy)-1H-benzimidazole-5-carboxylic acid amide] |  |  |
